Tests used:
[1] = tested on: human breast MDA-MB-231 tumor cell line; assay: Cell growth inhibition assay (alamar blue); type: cell-based; settings: MDA-MB-231, 20 μM, 72 h
Experimental: (§1) The compounds were screened in a growth inhibition assay at 20 μM over a 72 h period in a panel of cancer cell lines (lung-A549; pancreatic-Aspc1; colon-HT29; breast-MDAMB231; prostate-PC3; ovarian-SKOV3 and bone-U2OS) and the results are summarized in Table 2. […] This size effect was also observed with the urea compounds from the secondary amine (6j vs. 6l and 6k vs. 6m).
(§2) Cell Growth Inhibition Assay. Human lung A549, human pancreatic AsPC1, human colorectal HT-29, human breast MDA-MB-231, human prostate PC3, human ovarian SKOV3, and human osteosarcoma U2OS tumor cell lines were cultured in basal media containing 10% FBS and maintained in a 37° C. incubator with 5% CO2. All compounds were screened in 96 well microtiter plate format. In general, each cell line was plated at optimal assay density in 95 μl of propagation media in 96 well plates and incubated overnight. The next day, a standard alamar blue assay was performed (see below) on representative wells of each cell line for a Tz calculation. Subsequently, cells were treated in duplicate with a 5 μl volume of either vehicle only, positive controls etoposide and taxol, or test compounds at 20 μM (highest soluble compound concentration). The treated cells were incubated for 72 h and then assayed for growth by alamar blue assay. Briefly, 10 μl of reagent was added to each well and the plates returned to 37° C. After 3 h, fluorescence at 544ex/590em was measured using a SpectraMax M5 (Molecular Devices) plate reader. Growth is represented as a percentage of the control cells that were treated with vehicle only and % growth inhibition was determined using the NCI algorithm: Tz=number of untreated cells at zero time, C=Number of control cells at 72 h time, and T=number of compound treated cells at 72 h time; 100*([T−Tz]/[C−Tz]).

[2] = tested on: human colorectal HT-29 tumor cell line; assay: Cell growth inhibition assay (alamar blue); type: cell-based; settings: HT29, 20 μM, 72 h
Experimental: as §1, §2

[3] = tested on: human lung A549 tumor cell line; assay: Cell growth inhibition assay (alamar blue); type: cell-based; settings: A549, 20 μM, 72 h
Experimental: as §1, §2

[4] = tested on: human osteosarcoma U2OS tumor cell line; assay: Cell growth inhibition assay (alamar blue); type: cell-based; settings: 72 h
Experimental: as §1, §2

[5] = tested on: human ovarian SKOV3 tumor cell line; assay: Cell growth inhibition assay (alamar blue); type: cell-based; settings: SKOV3, 20 μM, 72 h
Experimental: as §1, §2

[6] = tested on: human pancreatic AsPC1 tumor cell line; assay: Cell growth inhibition assay (alamar blue); type: cell-based; settings: AsPC1, 20 μM, 72 h
Experimental: as §1, §2

[7] = tested on: human prostate PC3 tumor cell line; assay: Cell growth inhibition assay (alamar blue); type: cell-based; settings: PC3, 20 μM, 72 h
Experimental: as §1, §2

[8] = tested on: panel of cancer cell lines; assay: Growth inhibition assay, whole panel; type: cell-based, human; settings: 20 μM, 72 h
Experimental: as §1, §2

| SMILES | % Growth inhibition at 20 μM [1] | % Growth inhibition at 20 μM [2] | % Growth inhibition at 20 μM [3] | % Growth inhibition at 20 μM [4] | % Growth inhibition at 20 μM [5] | % Growth inhibition at 20 μM [6] | % Growth inhibition at 20 μM [7] | growth inhibition of the various cancer cell lines (in words) [8] |
| --- | --- | --- | --- | --- | --- | --- | --- | --- |
| CC(=O)Nc1ccc2nc(C)c(C)nc2c1 [5a] | 25.7 ± 5.1% | 31.7 ± 2.8% | 23.4 ± 3.3% | 31.4 ± 3.6% | 4.0 ± 3.6% | 26.2 ± 2.8% | 21.8 ± 15.1% | inhibited growth |
| CC(=O)Nc1ccc2nc(-c3ccco3)c(-c3ccco3)nc2c1 [5b] | 20.3 ± 5.9% | 7.6 ± 5.1% | 57.8 ± 7.0% | Inactive | 9.0 ± 3.4% | Inactive | 57.7 ± 9.4% | inhibited growth |
| CC(=O)Nc1ccc2nc(-c3cccs3)c(-c3cccs3)nc2c1 [5c] | Inactive | Inactive | Inactive | Inactive | Inactive | Inactive | Inactive |  |
| CC(=O)Nc1ccc2nc(-c3ccccc3)c(-c3ccccc3)nc2c1 [5d] | Inactive | Inactive | Inactive | Inactive | Inactive | Inactive | Inactive |  |
| Cc1nc2ccc(NC(=O)Nc3ccccc3)cc2nc1C [5e] | Inactive | Inactive | Inactive | Inactive | Inactive | Inactive | Inactive |  |
| O=C(Nc1ccccc1)Nc1ccc2nc(-c3ccco3)c(-c3ccco3)nc2c1 [5f] | 31.3 ± 10.7% | 52.1 ± 11.6% | 54.6 ± 2.6% | 59.6 ± 1.6% | 24.7 ± 1.1% | 9.6 ± 6.6% | 70.6 ± 1.3% | inhibited growth |
| O=C(Nc1ccccc1)Nc1ccc2nc(-c3cccs3)c(-c3cccs3)nc2c1 [5g] | Inactive | Inactive | Inactive | Inactive | Inactive | Inactive | Inactive |  |
| O=C(Nc1ccccc1)Nc1ccc2nc(-c3ccccc3)c(-c3ccccc3)nc2c1 [5h] | Inactive | Inactive | Inactive | Inactive | Inactive | Inactive | Inactive |  |
| Cc1ccc(S(=O)(=O)N(c2ccc3nc(-c4ccco4)c(-c4ccco4)nc3c2)S(=O)(=O)c2ccc(C)cc2)cc1 [5j] | Inactive | Inactive | Inactive | Inactive | Inactive | Inactive | Inactive |  |
| Cc1ccc(S(=O)(=O)N(c2ccc3nc(-c4cccs4)c(-c4cccs4)nc3c2)S(=O)(=O)c2ccc(C)cc2)cc1 [5k] | Inactive | Inactive | Inactive | Inactive | Inactive | Inactive | Inactive |  |
| Cc1ccc(S(=O)(=O)Nc2ccc3nc(-c4ccccc4)c(-c4ccccc4)nc3c2)cc1 [5l] | Inactive | Inactive | Inactive | Inactive | Inactive | Inactive | Inactive |  |
| S=C(Nc1ccccc1)Nc1ccc2nc(-c3cccs3)c(-c3cccs3)nc2c1 [6b] | Inactive | Inactive | Inactive | Inactive | Inactive | Inactive | Inactive |  |
| S=C(Nc1ccccc1)Nc1ccc2nc(-c3ccccc3)c(-c3ccccc3)nc2c1 [6c] | Inactive | Inactive | Inactive | Inactive | Inactive | Inactive | Inactive |  |
| O=[N+]([O-])c1ccc(NC(=S)Nc2ccc3nc(-c4cccs4)c(-c4cccs4)nc3c2)cc1 [6e] | 53.3 ± 7.2% | 23.9 ± 27.8% | Inactive | 50.6 ± 3.9% | Inactive | Inactive | 19.5 ± 37.4% |  |
| O=[N+]([O-])c1ccc(NC(=S)Nc2ccc3nc(-c4ccccc4)c(-c4ccccc4)nc3c2)cc1 [6f] | 72.6 ± 0.7% | 81.2 ± 0.7% | 16.6 ± 11.2% | 76.1 ± 0.4% | 55.8 ± 30.7% | 55.5 ± 25.4% | 81.0 ± 8.5% |  |
| Cc1nc2ccc(NC(=O)N3CCCC3)cc2nc1C [6g] | Inactive | Inactive | Inactive | Inactive | Inactive | Inactive | Inactive |  |
| O=C(Nc1ccc2nc(-c3ccccc3)c(-c3ccccc3)nc2c1)N1CCCC1 [6i] | 16.7 ± 3.9% | Inactive | 11.0 ± 1.3% | 54.2 ± 2.2% | 18.5 ± 4.3% | 29.4 ± 9.8% | 56.9 ± 2.7% |  |
| Cc1nc2ccc(NC(=O)N3CCC(Cc4ccccc4)CC3)cc2nc1C [6j] | 12.4 ± 5.0% | 16.3 ± 10.1% | 40.3 ± 1.9% | 33.5 ± 0.4% | 8.9 ± 5.1% | Inactive | 30.6 ± 11.6% |  |
| Cc1nc2ccc(NC(=O)N3CCCCC3)cc2nc1C [6l] | Inactive | Inactive | Inactive | Inactive | Inactive | Inactive | Inactive |  |
| O=C(Nc1ccc(F)cc1)Nc1ccc2nc(-c3ccco3)c(-c3ccco3)nc2c1 [7a] | 38.4 ± 2.7% | 74.2 ± 5.2% | >100% | 55.6 ± 6.6% | Inactive | >100% | 90.7 ± 4.1% |  |
| O=C(Nc1ccc(Cl)cc1)Nc1ccc2nc(-c3ccco3)c(-c3ccco3)nc2c1 [7b] | 92.5 ± 6.6% | 86.3 ± 7.7% | 99.2 ± 5.2% | 87.4 ± 1.1% | 55.8 ± 24.1% | 81.1 ± 2.0% | 86.4 ± 1.1% |  |
| O=C(Nc1ccc(-c2ccccc2)cc1)Nc1ccc2nc(-c3ccco3)c(-c3ccco3)nc2c1 [7d] | 50.2 ± 8.9% | 72.4 ± 7.6% | 13.8 ± 9.8% | 46.9 ± 7.4% | Inactive | Inactive | 88.5 ± 1.9% |  |

Source: patent US9353094B2, “Substituted quinoxalines as kinase inhibitors” (BOARD OF REGENTS OF THE UNIVERSITY OF NEBRASKA, priority 2010, dated 2016)
